According to the supplement of paper PMC10307832:

Legend:
Assay in all cases: relative viability (nuclei count vs DMSO), 5 days (fraction); higher = more cells survive
TGX 221 + AZD7762 = compound: CC1=CN2C(=O)C=C(N=C2C(=C1)C(C)NC3=CC=CC=C3)N4CCOCC4 [TGX 221] + NC(=O)Nc1cc(-c2cccc(F)c2)sc1C(=O)N[C@H]1CCCNC1 [AZD7762] (partner 0.2 µM)
Procedure, shortened: (§1)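 After 5 days of treatment, lung cancer cells in 1536-well plates were fixed and stained in a single step (final 0.05% Triton X-100, 1% formaldehyde, 1 ug/ml Hoechst) and their nuclei counted on 4× images. Treatment had been applied by pin tool the day after seeding as one drug alone or as a fixed anchor-drug dose with five library-drug doses (not always all listed) in √10 steps. Relative viability is the nuclei count of treated wells divided by that of vehicle wells, and values are medians of duplicate plates.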

TGX 221 + Tozasertib = compound: CC1=CN2C(=O)C=C(N=C2C(=C1)C(C)NC3=CC=CC=C3)N4CCOCC4 [TGX 221] + Cc1cc(Nc2cc(N3CCN(C)CC3)nc(Sc3ccc(NC(=O)C4CC4)cc3)n2)n[nH]1 [Tozasertib] (partner 0.1 µM)
Procedure, shortened: as §1

TGX 221 + Phenformin = compound: CC1=CN2C(=O)C=C(N=C2C(=C1)C(C)NC3=CC=CC=C3)N4CCOCC4 [TGX 221] + N=C(N)NC(=N)NCCc1ccccc1 [Phenformin] (partner 250 µM)
Procedure, shortened: as §1

[1] = compound: C1=CC=C(C(=C1)C2=CC=C(C=C2)C3=CSC4=C3C(=C(C(=O)N4)C#N)O)O + CCNC(=O)c1noc(-c2cc(C(C)C)c(O)cc2O)c1-c1ccc(CN2CCOCC2)cc1 [Luminespib] (partner 0.01 µM)
Procedure, shortened: as §1

Row | Cell Line | relative viability (TGX 221 + AZD7762; first compound 0.253 µM) | relative viability (TGX 221 + AZD7762; first compound 0.8 µM) | relative viability (TGX 221 + AZD7762; first compound 2.53 µM) | relative viability (TGX 221 + AZD7762; first compound 8 µM) | relative viability (TGX 221 + Tozasertib; first compound 0.08 µM) | relative viability (TGX 221 + Tozasertib; first compound 0.8 µM) | relative viability (TGX 221 + Tozasertib; first compound 2.53 µM) | relative viability (TGX 221 + Tozasertib; first compound 8 µM) | relative viability (TGX 221 + Phenformin; first compound 0.08 µM) | relative viability (TGX 221 + Phenformin; first compound 0.253 µM) | relative viability (TGX 221 + Phenformin; first compound 0.8 µM) | relative viability (TGX 221 + Phenformin; first compound 2.53 µM) | relative viability (TGX 221 + Phenformin; first compound 8 µM) | relative viability (TGX 221 + AZD7762; first compound 0.08 µM) | relative viability ([1]; first compound 0.08 µM) | relative viability ([1]; first compound 0.253 µM) | relative viability ([1]; first compound 0.8 µM) | relative viability ([1]; first compound 2.53 µM) | relative viability ([1]; first compound 8 µM) | relative viability (TGX 221 + Tozasertib; first compound 0.253 µM)
1 | NCI-H1648 | 0.784 | 0.793 | 0.628 | 0.672 | 0.422 | 0.563 | 0.406 | 0.45 |  |  |  |  |  |  |  |  |  |  |  | 
2 | NCI-H1755 | 0.391 | 0.399 | 0.409 | 0.371 | 0.522 | 0.521 | 0.538 | 0.428 | 0.584 | 0.598 | 0.549 | 0.585 | 0.528 | 0.338 | 0.401 | 0.302 | 0.336 | 0.349 | 0.447 | 0.499
3 | PC-3 [JPC-3] | 0.72 | 0.817 | 0.755 | 0.758 | 0.822 | 0.838 | 0.856 | 0.833 | 0.463 | 0.459 | 0.469 | 0.47 | 0.477 | 0.689 | 0.564 | 0.774 | 0.787 | 0.679 | 0.74 | 0.913
4 | SK-LU-1 |  |  |  |  | 0.346 | 0.321 | 0.343 | 0.308 | 0.542 | 0.502 | 0.498 | 0.491 | 0.477 |  | 0.195 | 0.217 | 0.217 | 0.175 | 0.218 | 0.356
5 | NCI-H1563 |  |  |  |  |  |  |  |  | 0.708 | 0.618 | 0.671 | 0.654 | 0.597 |  | 0.525 | 0.613 | 0.551 | 0.587 | 0.517 | 
6 | NCI-H2228 |  |  |  |  | 0.251 | 0.261 | 0.215 | 0.167 | 0.377 | 0.317 | 0.256 | 0.312 | 0.258 |  | 0.14 | 0.163 | 0.105 | 0.135 | 0.186 | 0.262
7 | A549 |  |  |  |  |  |  |  |  | 0.198 | 0.138 | 0.185 | 0.209 | 0.152 |  |  |  |  |  |  | 
8 | NCI-H1650 |  |  |  |  | 0.399 | 0.381 | 0.297 | 0.235 | 0.419 | 0.3 | 0.377 | 0.382 | 0.255 |  | 0.195 | 0.197 | 0.175 | 0.208 | 0.2 | 0.412
9 | SK-MES-1 |  |  |  |  | 0.897 | 0.916 | 0.957 | 0.796 | 0.71 | 0.66 | 0.706 | 0.719 | 0.574 |  | 0.766 | 0.822 | 0.763 | 0.622 | 0.633 | 0.992
10 | NCI-H661 |  |  |  |  | 0.348 | 0.392 | 0.358 | 0.373 | 0.308 | 0.279 | 0.288 | 0.288 | 0.287 |  | 0.808 | 0.985 | 0.964 | 0.9 | 0.898 | 0.371
11 | NCI-H520 |  |  |  |  | 0.469 | 0.382 | 0.304 | 0.303 | 0.469 | 0.352 | 0.355 | 0.379 | 0.315 |  | 0.261 | 0.225 | 0.218 | 0.246 | 0.21 | 0.385
